Active and inactive are the calls of the source. No cut-off for these calls is given here.
Key:
[1] = molecular target: T1, Protein cereblon/Bromodomain-containing protein 2 (Homo sapiens) (UniProt P25440+Q96SW2); test: PROTAC activity at CRBN/BRD2 in human MM1.S cells assessed as induction of protein degradation at 30 nM measured around 24 hrs by Western blot analysis; assay type: cell-based
[2] = molecular target: T2, Protein cereblon/Bromodomain-containing protein 4 (Homo sapiens) (UniProt O60885+Q96SW2); test: PROTAC activity at CRBN/BRD4-S in human MV4-11 cells assessed as induction of protein degradation at 0.1 to 30 nM measured after 24 hrs by Western blot analysis; assay type: cell-based; settings: dose 0.1-30 nM
[3] = molecular target: T1, Protein cereblon/Bromodomain-containing protein 2 (Homo sapiens); test: PROTAC activity at CRBN/BRD2 in human A549 cells assessed as induction of protein degradation at 3 to 1000 nM measured after 24 hrs by Western blot analysis; assay type: cell-based; settings: dose 3-1000 nM
[4] = molecular target: Bromodomain-containing protein 3 (Homo sapiens, UniProt Q15059); test: Binding affinity to recombinant human BRD3 BD2 (306 to 417 residues) assessed as inhibition constant by fluorescence polarization binding assay
[5] = test system: HGC-27; test: Antiproliferative activity against human HGC-27 cells assessed as cell growth inhibition measured after 4 days by CCK-8 assay; assay type: functional, cell-based; settings: HGC-27, 96 h
[6] = test system: MM1.S; test: Induction of cell cycle arrest in human MM1.S cells assessed as accumulation of cells at S phase at 1 nM incubated for 24 hrs by flow cytometry analysis (reference value: 22.37%); assay type: functional
[7] = test system: MM1.S; test: Induction of cell cycle arrest in human MM1.S cells assessed as accumulation of cells at S phase at 300 nM incubated for 24 hrs by flow cytometry analysis (reference value: 22.37%); assay type: functional
[8] = molecular target: T1, Protein cereblon/Bromodomain-containing protein 2 (Homo sapiens); test: PROTAC activity at CRBN/BRD2 in human HeLa cells assessed as induction of protein degradation at 1 to 300 nM measured after 24 hrs by Western blot analysis; assay type: cell-based; settings: dose 1-300 nM
[9] = test system: MM1.S; test: Downregulation of BRD2 expression in human MM1.S cells by proteomic analysis; assay type: functional, cell-based
[10] = test system: MM1.S; test: Antiproliferative activity against human MM1.S cells assessed as cell growth inhibition measured after 4 days by CellTitre-Glo assay; assay type: functional, cell-based; settings: 96 h
[11] = molecular target: T3, Protein cereblon/Bromodomain-containing protein 3 (Homo sapiens) (UniProt Q15059+Q96SW2); test: PROTAC activity at CRBN/BRD3 in human A549 cells assessed as induction of protein degradation measured after 24 hrs by Western blot analysis; assay type: cell-based; settings: dose 3-1000 nM
[12] = molecular target: T2, Protein cereblon/Bromodomain-containing protein 4 (Homo sapiens); test: PROTAC activity at CRBN/BRD4-S in human MM1.S cells assessed as induction of protein degradation at 0.1 to 30 nM measured after 24 hrs by Western blot analysis; assay type: cell-based; settings: dose 0.1-30 nM
[13] = molecular target: T3, Protein cereblon/Bromodomain-containing protein 3 (Homo sapiens); test: PROTAC activity at CRBN/BRD3 in human MM1.S cells assessed as induction of protein degradation at 2 nM measured after 24 hrs by Western blot analysis; assay type: cell-based
[14] = molecular target: T3, Protein cereblon/Bromodomain-containing protein 3 (Homo sapiens); test: PROTAC activity at CRBN/BRD3 in human MM1.S cells assessed as induction of protein degradation measured after 24 hrs by Western blot analysis; assay type: cell-based

T1 sequence (P25440 whole entry, looked up): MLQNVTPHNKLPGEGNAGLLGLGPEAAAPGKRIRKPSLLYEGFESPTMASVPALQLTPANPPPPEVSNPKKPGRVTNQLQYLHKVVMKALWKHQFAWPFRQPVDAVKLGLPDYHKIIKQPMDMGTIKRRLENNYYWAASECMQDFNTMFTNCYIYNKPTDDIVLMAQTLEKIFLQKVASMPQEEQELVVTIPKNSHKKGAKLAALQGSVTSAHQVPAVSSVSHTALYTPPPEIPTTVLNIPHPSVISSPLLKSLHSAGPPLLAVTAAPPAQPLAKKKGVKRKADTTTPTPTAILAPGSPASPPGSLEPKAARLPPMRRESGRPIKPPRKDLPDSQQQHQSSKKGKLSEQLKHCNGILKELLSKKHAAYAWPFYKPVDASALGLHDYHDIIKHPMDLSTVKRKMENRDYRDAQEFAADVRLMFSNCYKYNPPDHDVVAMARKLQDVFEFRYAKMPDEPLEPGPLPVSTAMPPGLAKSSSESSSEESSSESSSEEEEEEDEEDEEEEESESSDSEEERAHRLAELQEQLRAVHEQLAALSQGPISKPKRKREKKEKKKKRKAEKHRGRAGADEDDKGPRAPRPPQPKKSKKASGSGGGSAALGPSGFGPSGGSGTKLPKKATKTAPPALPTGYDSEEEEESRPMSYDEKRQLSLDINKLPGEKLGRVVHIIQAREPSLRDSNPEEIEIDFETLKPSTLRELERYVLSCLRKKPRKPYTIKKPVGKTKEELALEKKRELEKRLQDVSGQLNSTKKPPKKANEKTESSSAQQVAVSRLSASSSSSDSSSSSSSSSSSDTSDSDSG
T1 sequence (Q96SW2 whole entry, looked up): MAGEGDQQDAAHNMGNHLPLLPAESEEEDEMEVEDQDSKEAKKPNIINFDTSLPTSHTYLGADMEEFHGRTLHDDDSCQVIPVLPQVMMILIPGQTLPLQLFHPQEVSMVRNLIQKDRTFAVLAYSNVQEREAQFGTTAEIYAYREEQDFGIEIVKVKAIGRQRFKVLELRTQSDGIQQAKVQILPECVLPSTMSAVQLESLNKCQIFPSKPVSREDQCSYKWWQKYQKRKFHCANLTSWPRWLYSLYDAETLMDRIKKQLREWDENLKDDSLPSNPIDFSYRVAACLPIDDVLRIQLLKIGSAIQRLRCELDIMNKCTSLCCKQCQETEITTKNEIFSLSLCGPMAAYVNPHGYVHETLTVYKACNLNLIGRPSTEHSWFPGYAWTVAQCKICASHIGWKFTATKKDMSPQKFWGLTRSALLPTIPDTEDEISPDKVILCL
T3 sequence (Q15059 2-726 limits assumed): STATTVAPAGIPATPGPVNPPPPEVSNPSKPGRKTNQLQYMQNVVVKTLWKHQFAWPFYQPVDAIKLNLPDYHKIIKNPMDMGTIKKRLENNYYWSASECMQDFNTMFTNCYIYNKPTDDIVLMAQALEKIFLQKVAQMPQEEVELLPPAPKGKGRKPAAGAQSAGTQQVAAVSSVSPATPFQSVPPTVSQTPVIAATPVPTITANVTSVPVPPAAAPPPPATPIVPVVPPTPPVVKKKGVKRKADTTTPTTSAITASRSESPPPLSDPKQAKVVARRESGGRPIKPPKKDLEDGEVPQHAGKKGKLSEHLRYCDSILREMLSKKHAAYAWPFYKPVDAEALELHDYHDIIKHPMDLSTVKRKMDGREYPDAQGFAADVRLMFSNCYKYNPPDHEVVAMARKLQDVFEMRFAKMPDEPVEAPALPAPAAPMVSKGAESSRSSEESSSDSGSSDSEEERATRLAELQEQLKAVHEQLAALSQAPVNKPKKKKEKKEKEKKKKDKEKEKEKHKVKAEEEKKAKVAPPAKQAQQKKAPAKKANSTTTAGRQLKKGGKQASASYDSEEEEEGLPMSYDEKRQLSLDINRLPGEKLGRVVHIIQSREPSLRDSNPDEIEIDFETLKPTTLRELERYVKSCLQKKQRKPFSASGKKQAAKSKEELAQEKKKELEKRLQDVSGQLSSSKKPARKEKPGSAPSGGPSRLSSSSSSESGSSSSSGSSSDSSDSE
T3 sequence (Q96SW2 whole entry partner): as the sequence (Q96SW2 whole entry, looked up) above
T2 sequence (Q96SW2 whole entry, looked up, other chains not shown): as the sequence (Q96SW2 whole entry, looked up) above
Sequence of Bromodomain-containing protein 3 (Q15059 whole entry, the tested form may be a part): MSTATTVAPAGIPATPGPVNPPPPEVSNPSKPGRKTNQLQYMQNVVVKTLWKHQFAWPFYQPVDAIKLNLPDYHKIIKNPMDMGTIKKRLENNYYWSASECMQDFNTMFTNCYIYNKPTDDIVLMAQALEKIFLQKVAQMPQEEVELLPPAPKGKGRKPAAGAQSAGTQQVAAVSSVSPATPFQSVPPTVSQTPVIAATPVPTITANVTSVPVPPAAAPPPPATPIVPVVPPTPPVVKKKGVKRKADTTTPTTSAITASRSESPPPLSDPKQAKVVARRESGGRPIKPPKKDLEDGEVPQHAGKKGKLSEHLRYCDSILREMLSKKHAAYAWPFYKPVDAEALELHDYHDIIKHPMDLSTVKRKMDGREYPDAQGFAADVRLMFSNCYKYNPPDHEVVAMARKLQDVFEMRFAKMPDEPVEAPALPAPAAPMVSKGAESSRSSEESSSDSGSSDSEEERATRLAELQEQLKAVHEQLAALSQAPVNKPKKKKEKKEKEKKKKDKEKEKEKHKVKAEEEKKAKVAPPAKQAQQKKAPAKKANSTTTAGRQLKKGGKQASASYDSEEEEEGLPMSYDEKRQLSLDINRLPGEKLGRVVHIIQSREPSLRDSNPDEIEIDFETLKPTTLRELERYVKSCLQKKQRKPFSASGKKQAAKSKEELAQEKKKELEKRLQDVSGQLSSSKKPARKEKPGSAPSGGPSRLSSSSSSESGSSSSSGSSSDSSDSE

Activity [1]: Active
Activity [2]: Active
Activity [3]: inactive
Ki [4]: 2.45 nM
Activity [8]: inactive
IC50 [10]: 95.2 nM
Activity [11]: Dose-Dependent Effect
Activity [12]: inactive
Activity [13]: Active
Activity [14]: Dose-Dependent Effect
Structure (SMILES): Cc1nnc2n1-c1ccc(-c3ccc(CNCCCCc4cccc5c4CN(C4CCC(=O)NC4=O)C5=O)cc3)cc1C(Nc1ccc(Cl)cc1)CC2 (centres undefined)
IC50 [5]: 2350 nM
Activity [6]: 21.35%
Activity [7]: 13.79%
Activity [9]: inactive

From ChEMBL document CHEMBL5321219, “Selective degradation of cellular BRD3 and BRD4-L promoted by PROTAC molecules in six cancer cell lines” (Eur J Med Chem, 2023)
